Eight compounds from article PMC9774241, “Associating Biological Activity and Predicted Structure of Antimicrobial Peptides from Amphibians and Insects” (Antibiotics, 2022) can be followed below.

What all share (format): cell-based
Details in all cases: broth microdilution in MHB, peptide 128 down to 0.5 µg/mL, 20–24 h at 37 °C, no visible growth; range of three independent experiments

Assay [1] relates to Escherichia coli ATCC 25922. On the procedure: (§1) Bacteria were grown overnight at 37 °C in Mueller-Hinton Broth (MHB; Sigma-Aldrich, St. Louis. MO, USA) in a shaking incubator and aliquoted into cryovials with a 50% glycerol solution in a 1:1 ratio. No additives were added to the MHB during the growth of bacterial isolates. Glycerol stocks were stored at −80 °C.
(§2) The antimicrobial activity of the putative AMPs was determined by a broth microdilution assay as described by the Clinical and Laboratory Standards Institute, with the published adaptations for testing of cationic peptides. Escherichia coli 25922 and Staphylococcus aureus 29213 isolates were purchased from the American Type Culture Collection (ATCC; Manassas, VA, USA). A human clinical isolate of Salmonella enterica serovar Enteritidis was provided by the BC Centre for Disease Control. Bacteria from stocks stored at −80 °C were streaked onto nonselective Columbia blood agar with 5% sheep blood (Oxoid) and incubated overnight at 37 °C. Next, 2–4 colonies were streaked onto a new agar plate to ensure uniform health of colonies used in the broth microdilution assay. Isolated colonies were suspended in MHB and the optical density was measured with a spectrophotometer to create an initial inoculum concentration of approximately 1 × 10^8 cfu/mL. The inoculum was diluted 1:250 to a final concentration of 2–8 × 10^5 cfu/mL, which was confirmed by performing a Total Viability Count (TVC). The TVC consisted of plating a 1:1000 dilution of the final inoculum on nonselective media and was also used to confirm the health and purity of the inoculum in each trial.
(§3) Lyophilized 80 µg peptide aliquots synthesized by GenScript (Piscataway, NJ, USA) were resuspended to 1.28 mg/mL with UltraPure water (Thermo Fisher Scientific, Waltham, MA, USA) and serially diluted in polypropylene 96-well microtiter plates (Greiner Bio-One #650261, Kremsmünster, Austria) from 128 down to 0.5 µg/mL. Two columns per plate were reserved for growth and sterility controls. Inoculum was added to the wells containing the peptide and the growth control. Plates were incubated for 20–24 h at 37 °C. The minimum inhibitory concentration (MIC) was determined as the lowest peptide concentration where there was no visible bacterial growth.

The test system of assay [2] is Salmonella enterica serovar Enteritidis (human clinical isolate). On the procedure:
as §1, §2, §3

The test system of assay [3] is Staphylococcus aureus ATCC 29213. On the procedure:
as §1, §2, §3

In brackets after ≈: the same amount, converted by molar mass. Residues, ends and D or L forms follow the SMILES beside them.

Turning to `CC[C@H](C)[C@H](NC(=O)CNC(=O)[C@H](CCCNC(=N)N)NC(=O)[C@H](CCCCN)NC(=O)[C@H](CCCCN)NC(=O)[C@H](CCCNC(=N)N)NC(=O)[C@@H]1CCCN1C(=O)[C@@H](NC(=O)[C@H](CCSC)NC(=O)[C@H](CC(C)C)NC(=O)[C@@H](N)CCCCN)[C@@H](C)CC)C(=O)N[C@@H](Cc1ccccc1)C(=O)NCC(=O)NCC(=O)N[C@@H](CC(C)C)C(=O)N[C@@H](CC(C)C)C(=O)N[C@@H](CCCCN)C(=O)N[C@H](C(=O)NCC(=O)N[C@@H](CCCCN)C(=O)N[C@@H](CCCCN)C(=O)N[C@H](C(=O)N[C@@H](C)C(=O)N[C@@H](CS)C(=O)NCC(=O)N[C@@H](CC(C)C)C(=O)N[C@@H](CO)C(=O)NCC(=O)N[C@@H](CC(C)C)C(=O)N[C@@H](CS)C(=O)O)[C@@H](C)CC)C(C)C` [OdTo4] (H-KLMIPRKKRGIFGGLLKVGKKIACGLSGLC-OH; N-terminus and C-terminus assumed), the “MIC, E. coli ATCC 25922” value in assay [1] was 8 to 16 µg/mL. For the same compound, the “MIC, Salmonella Enteritidis” value in assay [2] stood at 16 µg/mL (≈ 5.02 µM). In assay [3], the “MIC, S. aureus ATCC 29213” value is listed as 16 µg/mL (≈ 5.02 µM).

Take `CC(C)C[C@H](NC(=O)CNC(=O)[C@@H](NC(=O)[C@@H](NC(=O)CNC(=O)[C@H](CS)NC(=O)[C@H](CC(C)C)NC(=O)[C@@H](NC(=O)[C@H](CCCCN)NC(=O)[C@H](CCCCN)NC(=O)CNC(=O)[C@@H](NC(=O)CNC(=O)[C@H](CC(C)C)NC(=O)[C@@H](NC(=O)[C@H](CCCCN)NC(=O)CNC(=O)[C@H](CC(C)C)NC(=O)[C@H](CC(C)C)NC(=O)CN)C(C)C)C(C)C)C(C)C)C(C)C)[C@@H](C)O)C(=O)N[C@@H](CS)C(=O)O` [PeNi1] (H-GLLGKVLGVGKKVLCGVTGLC-OH): in assay [1], the “MIC, E. coli ATCC 25922” value worked out at 4 µg/mL (≈ 1.99 µM). In assay [2], the “MIC, Salmonella Enteritidis” value lay in the range of 8 to 16 µg/mL. In addition, the “MIC, S. aureus ATCC 29213” value in assay [3] is 4 µg/mL (≈ 1.99 µM).

Turning to `CC(C)C[C@H](NC(=O)CNC(=O)[C@H](CO)NC(=O)[C@@H](NC(=O)[C@@H](NC(=O)[C@H](CS)NC(=O)[C@H](CC(C)C)NC(=O)[C@@H](NC(=O)[C@H](CCCCN)NC(=O)[C@H](CCCCN)NC(=O)CNC(=O)[C@@H](NC(=O)CNC(=O)[C@H](CC(C)C)NC(=O)[C@@H](NC(=O)[C@H](CCCCN)NC(=O)CNC(=O)[C@H](CC(C)C)NC(=O)[C@H](CC(C)C)NC(=O)CN)C(C)C)C(C)C)C(C)C)C(C)C)C(C)C)C(=O)N[C@@H](CS)C(=O)O` [PeNi2] (H-GLLGKVLGVGKKVLCVVSGLC-OH; N-terminus and C-terminus assumed), the “MIC, E. coli ATCC 25922” value in assay [1] worked out at 4 µg/mL (≈ 1.96 µM). In addition, the “MIC, Salmonella Enteritidis” value in assay [2] lay within 16 to 32 µg/mL. Further, the “MIC, S. aureus ATCC 29213” value in assay [3] is reported as 4 µg/mL (≈ 1.96 µM).

Turning to `CC(C)C[C@H](NC(=O)CN)C(=O)N[C@@H](CC(C)C)C(=O)NCC(=O)N[C@@H](CCCCN)C(=O)N[C@H](C(=O)N[C@@H](CC(C)C)C(=O)NCC(=O)N[C@H](C(=O)NCC(=O)N[C@@H](CCCCN)C(=O)N[C@@H](CCCCN)C(=O)N[C@H](C(=O)N[C@@H](CC(C)C)C(=O)N[C@@H](CS)C(=O)NCC(=O)N[C@H](C(=O)N[C@H](C(=O)NCC(=O)N[C@@H](CCCNC(=N)N)C(=O)N[C@@H](CCC(=O)O)C(=O)N[C@@H](CCCNC(=N)N)C(=O)N[C@@H](CS)C(=O)N[C@@H](CCC(N)=O)C(=O)O)[C@@H](C)O)C(C)C)C(C)C)C(C)C)C(C)C` [PeNi5] (H-GLLGKVLGVGKKVLCGVTGRERCQ-OH; N-terminus and C-terminus assumed), the “MIC, E. coli ATCC 25922” value in assay [1] came to 32 µg/mL (≈ 12.9 µM). Also, in assay [2], the “MIC, Salmonella Enteritidis” value stood at 64 µg/mL (≈ 25.9 µM). Besides, the “MIC, S. aureus ATCC 29213” value in assay [3] is reported as > 128 µg/mL.

Consider `CC[C@H](C)[C@H](NC(=O)[C@@H](N)C(C)C)C(=O)N1CCC[C@H]1C(=O)N[C@@H](Cc1ccccc1)C(=O)N[C@H](C(=O)N[C@@H](C)C(=O)N[C@@H](CO)C(=O)N[C@H](C(=O)N[C@@H](C)C(=O)N[C@@H](C)C(=O)N[C@@H](CCC(=O)O)C(=O)N[C@@H](CCSC)C(=O)N[C@@H](CCSC)C(=O)N[C@@H](Cc1c[nH]cn1)C(=O)N[C@@H](Cc1c[nH]cn1)C(=O)N[C@H](C(=O)N[C@@H](Cc1ccc(O)cc1)C(=O)N[C@@H](CS)C(=O)N[C@@H](C)C(=O)N[C@@H](C)C(=O)N[C@@H](CO)C(=O)N[C@@H](CCCCN)C(=O)N[C@@H](CCCNC(=N)N)C(=O)N[C@@H](CS)C(=O)N[C@@H](CCCCN)C(=O)N[C@@H](CC(N)=O)C(=O)O)C(C)C)C(C)C)C(C)C` [PeNi7] (H-VIPFVASVAAEMMHHVYCAASKRCKN-OH; N-terminus and C-terminus assumed), for which the “MIC, E. coli ATCC 25922” value in assay [1] is on record as 128 µg/mL (≈ 44.7 µM). Moreover, the “MIC, Salmonella Enteritidis” value in assay [2] is given as > 128 µg/mL. The “MIC, S. aureus ATCC 29213” value in assay [3] is on record as > 128 µg/mL.

Regarding `CC[C@H](C)[C@H](NC(=O)CN)C(=O)N[C@@H](CC(C)C)C(=O)N[C@@H](CC(C)C)C(=O)N[C@@H](CC(N)=O)C(=O)N[C@H](C(=O)N[C@@H](CC(C)C)C(=O)N[C@@H](CCCCN)C(=O)NCC(=O)N[C@@H](C)C(=O)N[C@@H](C)C(=O)N[C@@H](CCCCN)C(=O)N[C@@H](CC(N)=O)C(=O)N[C@H](C(=O)N[C@@H](C)C(=O)NCC(=O)N[C@H](C(=O)N[C@@H](CC(C)C)C(=O)N[C@@H](CC(C)C)C(=O)N[C@@H](CC(=O)O)C(=O)N[C@@H](CCCCN)C(=O)N[C@@H](CC(C)C)C(=O)N[C@@H](CCCCN)C(=O)N[C@@H](CS)C(=O)N[C@@H](CCCCN)C(=O)N[C@H](C(=O)N[C@H](C(=O)NCC(=O)NCC(=O)N[C@@H](CS)C(=O)O)[C@@H](C)O)[C@@H](C)CC)C(C)C)C(C)C)[C@@H](C)O` [PeNi8] (H-GILLNTLKGAAKNVAGVLLDKLKCKITGGC-OH; N-terminus and C-terminus assumed), in assay [1], the “MIC, E. coli ATCC 25922” value was found to be 8 µg/mL (≈ 2.66 µM). For the same compound, in assay [2], the “MIC, Salmonella Enteritidis” value is on record as 64 µg/mL (≈ 21.2 µM). The “MIC, S. aureus ATCC 29213” value in assay [3] was 4 to 8 µg/mL.

For the compound `CC[C@H](C)[C@H](NC(=O)[C@H](CCCCN)NC(=O)CNC(=O)[C@H](CC(C)C)NC(=O)[C@H](CC(C)C)NC(=O)CN)C(=O)N[C@@H](CC(C)C)C(=O)NCC(=O)N[C@H](C(=O)NCC(=O)N[C@@H](CCCCN)C(=O)N[C@@H](CCCCN)C(=O)N[C@H](C(=O)N[C@@H](CC(C)C)C(=O)N[C@@H](CS)C(=O)NCC(=O)N[C@H](C(=O)N[C@@H](CO)C(=O)NCC(=O)N[C@@H](CC(C)C)C(=O)N[C@@H](CS)C(=O)O)C(C)C)C(C)C)C(C)C` [PeNi9] (H-GLLGKILGVGKKVLCGVSGLC-OH), the “MIC, E. coli ATCC 25922” value in assay [1] is 2 to 4 µg/mL. The “MIC, Salmonella Enteritidis” value in assay [2] was in the range of 8 to 16 µg/mL. Also, the “MIC, S. aureus ATCC 29213” value in assay [3] was in the range of 4 to 8 µg/mL.

As for `CC[C@H](C)[C@H](NC(=O)CNC(=O)[C@H](C)NC(=O)[C@@H](NC(=O)[C@H](CC(N)=O)NC(=O)[C@H](CCCCN)NC(=O)[C@H](C)NC(=O)[C@H](C)NC(=O)CNC(=O)[C@H](CCCCN)NC(=O)[C@@H](NC(=O)[C@@H](NC(=O)[C@H](CC(=O)O)NC(=O)[C@H](CC(C)C)NC(=O)[C@H](CC(C)C)NC(=O)[C@H](CC(C)C)NC(=O)CN)[C@@H](C)O)C(C)C)C(C)C)C(=O)N[C@@H](CC(C)C)C(=O)N[C@@H](CC(C)C)C(=O)N[C@@H](CC(N)=O)C(=O)N[C@@H](CCCCN)C(=O)N[C@@H](CC(C)C)C(=O)N[C@@H](CCCCN)C(=O)N[C@@H](CS)C(=O)N[C@@H](CCCCN)C(=O)N[C@H](C(=O)N[C@H](C(=O)NCC(=O)N[C@@H](CC(=O)O)C(=O)N[C@@H](CS)C(=O)O)[C@@H](C)O)C(C)C` [PeNi10] (H-GLLLDTVKGAAKNVAGILLNKLKCKVTGDC-OH; N-terminus and C-terminus assumed), the “MIC, E. coli ATCC 25922” value in assay [1] is on record as 8 µg/mL (≈ 2.62 µM). Besides, in assay [2], the “MIC, Salmonella Enteritidis” value was in the range of 64 to 128 µg/mL. For the same compound, in assay [3], the “MIC, S. aureus ATCC 29213” value was 16 to 32 µg/mL.
